{"source": "paper PMC9497102", "about": "“Thiosemicarbazone Derivatives Developed to Overcome COTI-2 Resistance” (Cancers, 2022)", "key": {"[1]": {"experiment": "Distribution coefficient, shake-flask n-octanol/buffer pH 7.4", "type": "physicochemical", "conditions": "n-octanol/buffered aqueous solution; n-octanol/water, pH 7.4, 25 °C; read-out: log D7.4 (meas.)", "method": "Distribution coefficient (D7.4) values of COTI-NH2 were determined by the shake-flask method in n-octanol/buffered aqueous solution at pH 7.4 in 20 mM phosphate buffer (0.10 M KCl) at 25.0 ± 0.2 °C following a similar approach to that reported in our previous works. The other compounds and all of their Cu(II) complexes were too lipophilic to obtain experimental data. Thus, the logP values were calculated for COTI-NMeCy, COTI-Nme2, and COTI-2 (MarvinSketch,version 16.12.12.0, calculation module developed by ChemAxon (Budapest, Hungary), http://www.chemaxon.com/products/marvin/marvinsketch/ (accessed on 20 August 2022))."}, "[2]": {"experiment": "Thermodynamic solubility in water at pH 7.4 (UV-vis)", "type": "physicochemical", "conditions": "water at pH 7.4 (20 mM HEPES buffer), aqueous buffer, thermodynamic from solid, water pH 7.4 (20 mM HEPES), 25 °C, read-out: S (meas.)", "method": "(§1) The thermodynamic solubility of COTI-NMeCy, COTI-Nme2, COTI-NH2, and COTI-2 was measured for the saturated solutions in water at pH 7.4 (20 mM HEPES buffer) at 25.0 ± 0.1 °C. The concentrations of the compounds were determined by UV-vis spectrophotometry using stock solutions of the compounds with known concentrations dissolved in pure DMSO, and 50% and 1% (v/v) DMSO/buffered aqueous solution for the calibration. The parallel artificial membrane permeability assay (PAMPA) was applied for the ligands with a Corning Gentest pre-coated PAMPA Plate System. Peff values were calculated according to the equation reported by Yu et al.."}, "[3]": {"experiment": "Iron(III) complex formation, UV-vis spectrophotometric titrations", "type": "physicochemical", "method": "(§2) The UV-vis spectra were recorded using an Agilent Cary 8454 diode array spectrophotometer in the 200 to 950 nm window, and the path length was varied between 1 and 5 cm, depending on the solubility (thus the applicable concentration). For the spectrophotometric titrations, the same instruments (Metrohm 665 Dosimat burette, Orion 710A pH-meter, Metrohm combined pH glass electrode) and experimental setup (ionic strength: 0.10 M (KCl); titrant: 0.10 M carbonate-free KOH solution in 30% (v/v) DMSO/H2O; samples: prepared in 30% (v/v) DMSO/H2O; calibration: method of Irving et al.; pH range: 1.0 to 13.5; and sample volume: 10 cm^3) were used as in our previous work. Argon overpressure was used for the Fe(II)-containing samples when the Fe(II) stock solution was added to the samples in tightly closed titration vessels, which were previously completely deoxygenated (for 20 min). Measurements were taken with ligands (10–80 μM, depending on solubility) in the presence of 1, 0.5, and 0.3 equiv. of Cu(II), Fe(II), and Fe(III) ions. Equilibrium constants, such as the proton dissociation constants (pKa) of the ligands, the overall stability constants (logβ) of the metal complexes, and the UV-vis spectra of the individual ligand or complex species were computed using the program PSEQUAD [18], as was the case in our previous works."}, "[4]": {"experiment": "Copper(II) complex formation, UV-vis titrations and EDTA competition", "type": "physicochemical", "method": "as §2\nThe conditional stability constants (β’) of the Cu(II) complexes were calculated from competition reactions with EDTA at pH = 5.9 using MES (50 mM) when the metal:ligand ratio was 1:1 (clig = cCu between 10 and 80 μM). Individual samples were prepared in which the ligand:EDTA ratio was variable between 1:0 and 1:50. After a 3 h incubation period, UV-vis spectra were collected. The calculation of the β’ (CuL) values was performed following the same method as that in our previous work using the logβ’5.90 = 13.89 of complex [Cu(EDTA)]^2− obtained from the previously reported equilibrium constants of EDTA and its Cu(II) complex."}, "[5]": {"test_system": "SW480/Tria cells", "design": "method as in PMID 33190481", "conditions": "cited from earlier work; for IC50: 72 h, MTT; for Relative Resistance SW480/Tria: IC50 of resistant subline divided by IC50 of parental SW480"}, "[6]": {"experiment": "Cyclic voltammetry of copper(II)–ligand (1:1) systems", "type": "physicochemical", "conditions": "cL = cCu(II) = 1 mM, pH 7.40, 25 °C, 90% (v/v) DMSO/H2O, 0.01 V/s scan rate", "method": "(§3) Cyclic voltammograms for the Fe(III) and Cu(II) complexes were recorded in 90% (v/v) DMSO/water solution containing 1 mM ligand and 0.5 mM FeCl3 or 1 mM CuCl2 using a conventional three-electrode system under nitrogen atmosphere and a PC-Controlled Electrochemical Measurement System (EF 451). The ionic strength was 0.10 M, adjusted by TBAN. Samples were purged for 15 min with Ar before recording the cyclic voltammograms. Platinum electrodes were used as the working and auxiliary electrodes, and Ag/AgCl (3 M KCl) was applied as the reference electrode. The electrochemical potentials were converted into the normal hydrogen electrode (NHE) scale by adding 0.222 V. The instrument was calibrated with an aqueous solution of K3[Fe(CN)6] (E1/2 = +0.386 V vs. NHE). Redox potentials were obtained at different scan rates (5–25 mV/s) in the range of −0.8 to +0.1 V. The dependence of the peak current values of the square root of the scan rates is shown in Figure S5 for the iron and copper complexes of COTI-NMeCy."}, "[7]": {"test_system": "SW480/Coti cells", "design": "method as in PMID 33190481", "conditions": "cited from earlier work; for IC50: 72 h, MTT; for Relative Resistance SW480/Coti: IC50 of resistant subline divided by IC50 of parental SW480"}, "[8]": {"test_system": "GLC-4 cells", "design": "method as in PMID 33190481", "conditions": "72 h, MTT; cited from earlier work"}, "[9]": {"experiment": "Iron(II) complex formation, UV-vis spectrophotometric titrations (anaerobic)", "type": "physicochemical", "method": "as §2"}, "[10]": {"experiment": "Zinc(II) complex formation, UV-vis spectrophotometric titrations", "type": "physicochemical"}, "[11]": {"test_system": "SW480 cells", "design": "method as in PMID 33190481", "conditions": "72 h, MTT; cited from earlier work"}, "[12]": {"design": "method as in PMID 33190481", "conditions": "after formation of mixed-ligand GSH adduct; cited from earlier work"}, "[13]": {"experiment": "Parallel artificial membrane permeability assay (PAMPA)", "type": "in vitro ADME", "conditions": "pH 7.4, 25 °C, read-out: Peff", "method": "as §1"}, "[14]": {"experiment": "pKa by UV-vis spectrophotometric titrations", "type": "physicochemical", "conditions": "30% (v/v) DMSO/H2O solution, I = 0.1 M (KCl), 25 °C", "method": "as §2"}, "[15]": {"test_system": "GLC-4/adr cells (ABCC1-overexpressing)", "design": "method as in PMID 33190481", "conditions": "cited from earlier work; for IC50: 72 h, MTT; for Relative Resistance GLC-4/adr: IC50 of GLC-4/adr divided by IC50 of parental GLC-4"}, "[16]": {"design": "method as in doi:10.1002/ejic.200901174", "conditions": "cited from earlier work"}, "[17]": {"experiment": "Cyclic voltammetry of iron(III)–ligand (1:2) systems", "type": "physicochemical", "conditions": "cL = 1 mM, pH 7.40, 25 °C, 90% (v/v) DMSO/H2O, 0.01 V/s scan rate", "method": "as §3"}, "[18]": {"design": "method as in PMID 21523301", "conditions": "cited from earlier work"}, "[19]": {"design": "method as in doi:10.1002/ejic.201200360", "conditions": "cited from earlier work"}, "[20]": {"conditions": "T = 25.0 °C, I = 0.10 M (KCl), 30% (v/v) DMSO/H2O"}, "[21]": {"conditions": "calculated at cM = 1 μM, cL = 10 μM, pH = 7.40"}}, "note": "Read-outs that look alike come from different tables or passages of the source. Marks after values point to notes of the source that are not given here."}
{"molecule": "NC(=S)N/N=C1\\CCCc2cccnc21", "note": "[COTI-NH2]", "values": [{"measurement": "logD", "setting": "[1]", "result": 1.64}, {"measurement": "solubility thermodynamic", "setting": "[2]", "result": 737, "unit": "µM"}, {"measurement": "pFe(III)*", "setting": "[3]; Fe(III) hydroxido species also considered as unbound metal, cFe = 1 μM, cL = 10 μM, pH = 7.40", "result": 10.4}, {"measurement": "logβ [Fe(III)L2]^+", "setting": "[3]; [20]", "result": "32.29 ± 0.08"}, {"measurement": "logβ [Fe(III)L]^2+", "setting": "[3]; [20]", "result": "20.00 ± 0.09"}, {"measurement": "pFe(III)", "setting": "[3]; –log[free Fe(III)] calculated at cFe = 1 μM, cL = 10 μM, pH = 7.40", "result": 18.5}, {"measurement": "pCu", "setting": "[4]; [21]", "result": 13.1}, {"measurement": "logβ5.9′ [CuL]^+", "setting": "[4]; conditional stability constant, EDTA competition at pH = 5.90", "result": "10.59 ± 0.08"}, {"measurement": "logβ [CuL]^+", "setting": "[4]; β = β’ × αH, [H+] = 10^–5.90 M", "result": 16.92}, {"measurement": "IC50", "setting": "[5]", "result": "> 20", "unit": "µM"}, {"measurement": "Relative Resistance SW480/Tria", "setting": "[5]", "result": ">2.5"}, {"measurement": "E′ vs. NHE, copper(II)–ligand (1:1) systems", "setting": "[6]", "result": -0.17, "unit": "V"}, {"measurement": "IC50", "setting": "[7]", "result": "4.39 ± 0.56", "unit": "µM"}, {"measurement": "Relative Resistance SW480/Coti", "setting": "[7]", "result": "0.6 ***"}, {"measurement": "IC50", "setting": "[8]", "result": "3.64 ± 0.39", "unit": "µM"}, {"measurement": "logβ [Fe(II)L2]", "setting": "[9]; [20]", "result": "31.21 ± 0.09"}, {"measurement": "logβ [Fe(II)L]^+", "setting": "[9]; [20]", "result": "17.36 ± 0.06"}, {"measurement": "pFe(II)", "setting": "[9]; –log[free Fe(II)] calculated at cFe = 1 μM, cL = 10 μM, pH = 7.40", "result": 17.4}, {"measurement": "logβ [ZnL2]", "setting": "[10]; [20]", "result": "25.42 ± 0.04"}, {"measurement": "logβ [ZnL]^+", "setting": "[10]; [20]", "result": "14.07 ± 0.04"}, {"measurement": "pZn", "setting": "[10]; [21]", "result": 11.6}, {"measurement": "IC50", "setting": "[11]", "result": "7.85 ± 0.92", "unit": "µM"}, {"measurement": "redox reaction of the copper(II) complex with GSH", "setting": "[12]", "result": "relatively slow redox reaction took place"}, {"measurement": "Papp", "setting": "[13]", "result": "6.7 ± 0.7", "unit": "×10⁻⁶ cm/s"}, {"measurement": "pKa", "setting": "[14]; read-out: pKa (H2L)", "result": "4.39 ± 0.01"}, {"measurement": "pKa", "setting": "[14]; read-out: pKa (HL)", "result": "12.22 ± 0.01"}, {"measurement": "IC50", "setting": "[15]", "result": "3.65 ± 0.41", "unit": "µM"}, {"measurement": "Relative Resistance GLC-4/adr", "setting": "[15]", "result": "1.0 ^n.s."}]}
{"molecule": "NC(=S)NN=Cc1ncccc1N", "note": "[Triapine, 3-aminopyridine-2-carboxaldehyde thiosemicarbazone]", "values": [{"measurement": "IC50", "setting": "[5]", "result": "> 50", "unit": "µM"}, {"measurement": "Relative Resistance SW480/Tria", "setting": "[5]", "result": ">61"}, {"measurement": "logβ [CuL]^+", "setting": "[16]", "result": 13.9}, {"measurement": "E′ vs. NHE, copper(II)–ligand (1:1) systems", "setting": "[6]", "result": -0.13, "unit": "V"}, {"measurement": "E’ vs. NHE, iron(III)–ligand (1:2) systems", "setting": "[17]", "result": "+0.03 V"}, {"measurement": "IC50", "setting": "[7]", "result": "0.81 ± 0.08", "unit": "µM"}, {"measurement": "Relative Resistance SW480/Coti", "setting": "[7]", "result": "1.0 ^n.s."}, {"measurement": "IC50", "setting": "[8]", "result": "0.65 ± 0.09", "unit": "µM"}, {"measurement": "IC50", "setting": "[11]", "result": "0.82 ± 0.18", "unit": "µM"}, {"measurement": "E′ of the iron complex", "setting": "[18]", "result": "+0.07 V"}, {"measurement": "logD7.4", "setting": "[19]", "result": "+0.85"}, {"measurement": "IC50", "setting": "[15]", "result": "0.57 ± 0.05", "unit": "µM"}, {"measurement": "Relative Resistance GLC-4/adr", "setting": "[15]", "result": "0.9 ^n.s."}]}
